Literature values as cited in patent publication US20240424165A1, “NEW COATING OF IMPLANTS” (Universität Münster, priority 2021, published 2024).
Converted amounts (≈) assume the structure as drawn.

System: S. aureus

**Q.** For `CO[C@H]1/C=C/O[C@@]2(C)Oc3c(C)c(O)c4c(O)c(c(/C=N/N5CCN(C)CC5)c(O)c4c3C2=O)NC(=O)/C(C)=C\C=C\[C@H](C)[C@H](O)[C@@H](C)[C@@H](O)[C@@H](C)[C@H](OC(C)=O)[C@@H]1C` [rifampin], which MIC is on record?
**A.** The MIC was 0.06 µg/mL (≈ 0.0729 µM).
